In the supplement of paper PMC10307832:

Assays:
Assay in all cases: relative viability (nuclei count vs DMSO), 5 days (fraction); higher = more cells survive
[1] = compound: CC1CC(=O)N(C2=CN=C(N=C2N1C3CCCC3)NC4=C(C=C(C=C4)C(=O)NC5CCN(CC5)C)OC)C [NPK76-II-72-1] + CC(=O)c1c(C)c2cnc(Nc3ccc(N4CCNCC4)cn3)nc2n(C2CCCC2)c1=O [Palbociclib] (partner 0.5 µM)
Procedure, shortened: (§1)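 Relative viability divides the nuclei count in treated wells by that in vehicle wells. Lung cancer cell lines were seeded in 1536-well plates, dosed by pin tool the next day, and fixed and stained after 5 days in one step with final 0.05% Triton X-100, 1% formaldehyde and 1 ug/ml Hoechst. Dosing was a single drug or a fixed anchor-drug dose plus five library-drug doses (not always all listed) in √10 steps, and values are medians of duplicate plates imaged at 4×.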

[2] = compound: CC1CC(=O)N(C2=CN=C(N=C2N1C3CCCC3)NC4=C(C=C(C=C4)C(=O)NC5CCN(CC5)C)OC)C [NPK76-II-72-1] + Nc1nc2[nH]cc(CCc3ccc(C(=O)N[C@@H](CCC(=O)O)C(=O)O)cc3)c2c(=O)[nH]1 [Pemetrexed] (partner 0.2 µM)
Procedure, shortened: as §1

BI-2536 + Alpelisib = compound: CC[C@@H]1C(=O)N(C)c2cnc(Nc3ccc(C(=O)NC4CCN(C)CC4)cc3OC)nc2N1C1CCCC1 [BI-2536] + Cc1nc(NC(=O)N2CCC[C@H]2C(N)=O)sc1-c1ccnc(C(C)(C)C(F)(F)F)c1 [Alpelisib] (partner 2 µM)
Procedure, shortened: as §1

BI-2536 + Decitabine = compound: CC[C@@H]1C(=O)N(C)c2cnc(Nc3ccc(C(=O)NC4CCN(C)CC4)cc3OC)nc2N1C1CCCC1 [BI-2536] + Nc1ncn([C@H]2C[C@H](O)[C@@H](CO)O2)c(=O)n1 [Decitabine] (partner 2 µM)
Procedure, shortened: as §1

| Cell Line | relative viability ([1]; first compound 0.01 µM) | relative viability ([1]; first compound 0.03162 µM) | relative viability ([1]; first compound 0.1 µM) | relative viability ([1]; first compound 0.3162 µM) | relative viability ([1]; first compound 1 µM) | relative viability ([2]; first compound 0.01 µM) | relative viability ([2]; first compound 0.03162 µM) | relative viability ([2]; first compound 0.1 µM) | relative viability ([2]; first compound 0.3162 µM) | relative viability ([2]; first compound 1 µM) | relative viability (BI-2536 + Alpelisib; first compound 0.01 µM) | relative viability (BI-2536 + Alpelisib; first compound 0.03162 µM) | relative viability (BI-2536 + Alpelisib; first compound 0.1 µM) | relative viability (BI-2536 + Alpelisib; first compound 0.3162 µM) | relative viability (BI-2536 + Alpelisib; first compound 1 µM) | relative viability (BI-2536 + Decitabine; first compound 0.01 µM) | relative viability (BI-2536 + Decitabine; first compound 0.03162 µM) | relative viability (BI-2536 + Decitabine; first compound 0.1 µM) | relative viability (BI-2536 + Decitabine; first compound 0.3162 µM) | relative viability (BI-2536 + Decitabine; first compound 1 µM) |
| --- | --- | --- | --- | --- | --- | --- | --- | --- | --- | --- | --- | --- | --- | --- | --- | --- | --- | --- | --- | --- |
| NCI-H1915 | 0.508 | 0.606 | 0.529 | 0.502 | 0.536 | 0.459 | 0.527 | 0.452 | 0.475 | 0.533 | 1.05 | 0.977 | 0.812 | 0.129 | 0.0999 | 0.261 | 0.238 | 0.227 | 0.108 | 0.119 |
| NCI-H1793 |  | 0.324 | 0.352 | 0.256 | 0.366 |  | 1.05 | 0.92 | 0.806 | 0.981 | 0.785 | 0.639 | 0.469 | 0.204 | 0.165 | 0.419 | 0.509 | 0.236 | 0.198 | 0.145 |
| NCI-H2023 | 0.365 | 0.385 | 0.343 | 0.341 | 0.439 | 0.229 | 0.228 | 0.236 | 0.253 | 0.268 | 0.57 | 0.577 | 0.309 | 0.0843 | 0.0719 | 0.186 | 0.191 | 0.112 | 0.091 | 0.084 |
| COR-L 105 | 0.389 | 0.417 | 0.379 | 0.439 | 0.469 | 1.06 | 1.07 | 0.992 | 1.02 | 1.12 | 0.744 | 1.07 | 0.817 | 0.252 | 0.26 | 0.688 | 0.686 | 0.542 | 0.352 | 0.322 |
| RERF-LC-KJ | 0.906 | 1.12 | 1.06 | 1.08 | 1.18 | 0.469 | 0.505 | 0.46 | 0.439 | 0.506 | 0.697 | 0.724 | 0.675 | 0.195 | 0.208 | 0.692 | 0.437 | 0.157 | 0.194 | 0.215 |
| LXF-289 | 0.594 | 0.58 | 0.562 | 0.577 | 0.633 | 0.885 | 0.976 | 0.89 | 0.892 | 0.855 | 1.02 | 0.975 | 0.519 | 0.0396 | 0.0625 | 0.382 | 0.376 | 0.363 | 0.0762 | 0.1 |
| PC-14 | 0.514 | 0.593 | 0.438 | 0.505 | 0.545 | 0.124 | 0.126 | 0.125 | 0.123 | 0.162 | 0.951 | 0.891 | 0.877 | 0.0726 | 0.0642 | 0.227 | 0.172 | 0.09 | 0.0445 | 0.0408 |
| NCI-H650 | 0.332 | 0.366 | 0.3 | 0.303 | 0.356 | 1.01 | 0.972 | 0.879 | 0.922 | 0.994 | 1.02 | 0.778 | 0.437 | 0.218 | 0.127 | 0.303 | 0.328 | 0.246 | 0.146 | 0.126 |
| NCI-H1666 | 0.64 | 0.62 | 0.652 | 0.6 | 0.67 | 0.844 | 0.802 | 0.88 | 0.78 | 0.917 | 0.988 | 0.737 | 0.592 | 0.287 | 0.266 | 0.716 | 0.68 | 0.625 | 0.411 | 0.378 |
| NCI-H2085 | 0.475 | 0.445 | 0.464 | 0.489 | 0.491 | 0.855 | 0.946 | 0.972 | 0.915 | 0.974 | 1.01 | 0.863 | 0.601 | 0.234 | 0.307 | 0.629 | 0.484 | 0.484 | 0.301 | 0.303 |
| NCI-H1734 | 0.328 | 0.348 | 0.345 | 0.321 | 0.384 | 0.428 | 0.402 | 0.413 | 0.418 | 0.416 | 0.634 | 0.777 | 0.51 | 0.192 | 0.222 | 0.5 | 0.457 | 0.37 | 0.157 | 0.164 |
| NCI-H2126 | 0.338 | 0.348 | 0.331 | 0.347 | 0.345 | 0.678 | 0.809 | 0.617 | 0.672 | 0.736 | 0.739 | 0.731 | 0.62 | 0.269 | 0.237 | 0.547 | 0.591 | 0.492 | 0.247 | 0.244 |
| EMC-BAC-2 | 0.54 | 0.561 | 0.476 | 0.516 | 0.538 | 0.451 | 0.497 | 0.446 | 0.451 | 0.453 | 0.741 | 0.886 | 0.604 | 0.161 | 0.12 | 0.986 | 0.959 | 0.866 | 0.287 | 0.235 |
| NCI-H1993 | 0.629 | 0.647 | 0.616 | 0.563 | 0.682 | 0.515 | 0.566 | 0.474 | 0.566 | 0.644 | 0.68 | 0.618 | 0.556 | 0.532 | 0.541 | 0.61 | 0.601 | 0.436 | 0.42 | 0.405 |
| NCI-H520 | 0.235 | 0.24 | 0.267 | 0.26 | 0.247 | 0.575 | 0.741 | 0.427 | 0.65 | 0.825 | 0.833 | 0.828 | 0.315 | 0.201 | 0.154 | 0.538 | 0.393 | 0.226 | 0.195 | 0.209 |
| NCI-H647 | 0.31 | 0.351 | 0.424 | 0.362 | 0.506 | 0.189 | 0.174 | 0.171 | 0.172 | 0.198 | 1.19 | 0.57 | 0.571 | 0.0897 | 0.091 | 0.391 | 0.301 | 0.103 | 0.0938 | 0.135 |
| NCI-H1792 | 0.698 |  | 0.672 | 0.662 | 0.68 |  | 0.961 | 0.627 | 0.636 | 1.06 | 0.786 | 0.804 | 0.643 | 0.34 | 0.134 | 0.587 | 0.589 | 0.386 | 0.0865 | 0.0535 |
| SK-LU-1 | 0.374 | 0.374 | 0.371 | 0.35 | 0.417 | 0.972 | 1.05 | 0.925 | 1.03 | 1.04 | 1.03 | 0.507 | 0.317 | 0.28 | 0.244 | 0.61 | 0.726 | 0.337 | 0.316 | 0.249 |
| NCI-H2009 | 0.178 | 0.195 | 0.213 | 0.262 | 0.2 | 0.971 | 1.18 | 1 | 1.02 | 1.04 | 1.15 | 1.01 | 0.581 | 0.236 | 0.191 | 0.4 | 0.337 | 0.324 | 0.193 | 0.169 |
| LOU-NH91 | 0.538 | 0.52 | 0.496 | 0.52 | 0.528 | 0.348 | 0.402 | 0.381 | 0.44 | 0.35 | 0.764 | 0.602 | 0.657 | 0.359 | 0.317 | 0.816 | 0.685 | 0.66 | 0.343 | 0.383 |
| NCI-H2405 | 0.528 | 0.554 | 0.514 | 0.514 | 0.561 | 1.04 | 1.01 | 0.956 | 1.08 | 1.06 | 0.665 | 0.408 | 0.374 | 0.132 | 0.365 | 0.721 | 0.662 | 0.387 | 0.307 | 0.392 |
| LCLC-97TM1 | 0.196 | 0.215 | 0.209 | 0.211 | 0.203 | 0.178 | 0.196 | 0.164 | 0.158 | 0.155 | 0.197 | 0.219 | 0.214 | 0.129 | 0.141 | 0.228 | 0.277 | 0.163 | 0.0912 | 0.0986 |
| H3255 | 0.351 | 0.319 | 0.305 | 0.3 | 0.304 | 0.565 | 0.517 | 0.604 | 0.446 | 0.602 | 0.691 | 0.492 | 0.37 | 0.252 | 0.241 | 0.565 | 0.374 | 0.428 | 0.16 | 0.299 |
| SK-MES-1 | 0.325 | 0.342 | 0.26 | 0.313 | 0.385 | 0.929 | 0.968 | 0.989 | 1.01 | 1.12 | 0.869 | 0.957 | 0.786 | 0.147 | 0.186 | 0.335 | 0.351 | 0.186 | 0.164 | 0.184 |
| NCI-H1437 | 0.31 | 0.311 | 0.292 | 0.272 | 0.3 | 0.319 | 0.305 | 0.307 | 0.305 | 0.352 | 0.981 | 0.742 | 0.422 | 0.113 | 0.0916 | 0.572 | 0.573 | 0.335 | 0.229 | 0.197 |
| LU99A | 0.404 | 0.437 | 0.425 | 0.393 | 0.443 | 0.181 | 0.172 | 0.205 | 0.163 | 0.22 | 0.53 | 0.515 | 0.209 | 0.146 | 0.179 | 0.796 | 1.02 | 0.717 | 0.198 | 0.25 |
| HCC-827 | 0.474 | 0.457 | 0.488 | 0.491 | 0.561 | 0.293 | 0.275 | 0.302 | 0.264 | 0.278 | 0.934 | 1.03 | 0.867 | 0.282 | 0.243 | 0.357 | 0.363 | 0.269 | 0.203 | 0.117 |
